In US20060128792A1, “Deguelin as a chemopreventive agent for lung cancer” (priority 2002, published 2006):
“And” between values parts separate entries of the source, which are not always exact repeats. Equal values may be shown once.

Experiments:
Format in all cases: cell-based
A549 = assay: MTT assay, growth inhibition by deguelin or deguelin derivatives; conditions: A549, 3 days
H322 = assay: as above; conditions: H322, 3 days
H226Br = assay: as above; conditions: 3 days
Cal1 = assay: as above; conditions: 3 days
[1] = test system: premalignant (1799, 1198) and malignant (1170) HBE cell lines; assay: MTT assay, growth of premalignant and malignant HBE cell lines; conditions: HBE, 72 h, read-out: IC50, growth of premalignant and malignant HBE cell lines
Source text: Cells and Cell Cultures. […] Tumors developed 6 months later. […] (Klein-Szanto et al., 1992).

1799 cells = assay: Apoptosis assay (TUNEL, APO-BRDU kit, flow cytometry; DNA fragmentation); conditions: for apoptosis in 1799 cells (TUNEL, flow cytometry): 3 days
Description: (§1) Apoptosis assay. Normal, premalignant, and malignant HBE cells were exposed to v various doses of deguelin for 3 days. […] Both adherent and floating cells were combined for the assessment of apoptosis using the APO-BRDU staining kit (Phoenix Flow Systems, San Diego, Calif.). Briefly, floating and attached cells dispersed with trypsin-EDTA were pelleted, washed, and fixed by 1% paraformaldehyde followed by 70% ethanol. The fixed cells were washed and incubated with DNA-labeling solution containing terminal deoxynucleotidyl transferase (TdT) reaction buffer, TdT enzyme, and bromodeoxyuridine triphosphate (Br-dUTP). Cells were rinsed, resuspended with fluorescein-PRB-I antibody solution, and analyzed by flow cytometry in the presence of PI/RNase solution. All analyses were performed based on 3000 to 10,000 events using a FACScan flow cytometer (Becton Dickinson, San Jose, Calif.) equipped with a 488-nm argon ion laser and CellQuest software. A dual display of DNA area (linear red fluorescence) and Br-dUTP incorporation (FITC-PRB-1) was used to determine the percentage of apoptotic cells.
(§2) The percentage of dead cells was determined by fluorescent-activated cell sorting (FACS) analysis of PI-stained nuclei. Apoptosis was also determined by the detection of nucleosomal DNA fragmentation, which was measured using the TACS apoptotic DNA Jaddering kit (Trevigen, Inc., Gaithersburg, Md.) according to the manufacturer's protocol. […] Apoptosis was analyzed using the APO-BRDU staining kit (Phoenix Flow Systems) as described above.

NHBE cells = assay: Apoptosis assay (TUNEL; DNA fragmentation)
Description: as §1, with “All analyses were performed based on 3000 to 10,000 events using a FACScan flow cytometer (Becton Dickinson, San Jose, Calif.) equipped with a 488-nm argon ion laser and CellQuest software.” left out
as §2

NSCLC cells = assay: MTT assay, growth inhibition of NSCLC cells by deguelin and deguelin derivatives (Table 2, FIG. 7); conditions: 72 h, depending on the cell line, 3 days
[2] = test system: bax and bcl-2 in lung cancer cell lines; assay: Western blot of bax and bcl-2; conditions: 10^−7 M deguelin
Description: Immunoblotting. Whole cell lysates were prepared in lysis buffer (50 mM N-[2-[…]]-piperazine-N′-[2-ethanesulfonic acid] [HEPES; pH 7.5], 150 mM NaCl, 1.5 mM MgCl2, ImM EDTA, 0.2 mM EGTA, 1% NP40, 10% glycerol, 1 mM dithiothreitol (DTT), 1 mM phenylmethylsulfonyl fluoride, 20 mM sodium fluoride, 5 mM sodium orthovanadate, 10 μg/ml aprotinin, 10 μg/ml leupeptin, 2 μg/ml pepstatin, and 1 mM benzamidine) as described previously (Lee et al., 2002). Equivalent protein concentrations were resolved in sodium dodecyl sulfate-polyacrylamide gels and transferred to a nitrocellulose membrane. After the blocking of transblotted membrane in Tris-buffered saline (TBS) containing 0.05% Tween 20 (TBST) and 5% low fat milk, themembrane was incubated with primary antibody at the appropriate dilution in TBS-5% low-fat milk at 4° C. for 16 h and washed with TBST. The immunoblots were visualized using the ECL kit (Amersham, Inc., Arlington Heights, III) according to the manufacturer's directions. […]
The apoptotic effect of deguelin was further assessed in HBE cells. […] Apoptosis was analyzed by flow cytometry as described above. […] To confirm the apoptotic activity in these cells, bax and bcl-2 expression were analyzed by western blotting. […] Thus, it was determined that deguelin increases bax expression thereby inducing the apoptotic activity in lung cancer cells.

SMILES: COc1cc2c(cc1OC)[C@@H]1C(=O)c3ccc4c(c3O[C@@H]1CO2)C=CC(C)(C)O4 [Deguelin]
- Avg. % con (A549; deguelin 10^−6M): 0.13 % con
- MTT value, mean of replicates (unheaded line) (A549; deguelin 10^−6M): 0.060
- MTT value, replicate (unheaded line) (A549; deguelin 10^−6M): 0.057 (2×) and 0.066
- Avg. % con (A549; deguelin 10^−8M): 0.83 % con
- MTT value, mean of replicates (unheaded line) (A549; deguelin 10^−8M): 0.382
- MTT value, replicate (unheaded line) (A549; deguelin 10^−8M): 0.381 (2×) and 0.385
- Avg. % con (A549; deguelin 10^−10M): 0.88 % con
- MTT value, mean of replicates (unheaded line) (A549; deguelin 10^−10M): 0.408
- MTT value, replicate (unheaded line) (A549; deguelin 10^−10M): 0.375 and 0.422 and 0.427
- Avg. % con (A549; deguelin 10^−12M): 0.89 % con
- MTT value, mean of replicates (unheaded line) (A549; deguelin 10^−12M): 0.411
- MTT value, replicate (unheaded line) (A549; deguelin 10^−12M): 0.416 and 0.404 and 0.412
- Avg. % con (H322; deguelin 10^−6M): 0.49 % con
- MTT value, mean of replicates (unheaded line) (H322; deguelin 10^−6M): 0.094
- MTT value, replicate (unheaded line) (H322; deguelin 10^−6M): 0.096 and 0.087 and 0.1
- Avg. % con (H322; deguelin 10^−8M): 0.89 % con
- MTT value, mean of replicates (unheaded line) (H322; deguelin 10^−8M): 0.173
- MTT value, replicate (unheaded line) (H322; deguelin 10^−8M): 0.172 (2×) and 0.174
- Avg. % con (H322; deguelin 10^−10M): 0.84 % con
- MTT value, mean of replicates (unheaded line) (H322; deguelin 10^−10M): 0.163
- MTT value, replicate (unheaded line) (H322; deguelin 10^−10M): 0.153 and 0.16 and 0.177
- Avg. % con (H322; deguelin 10^−12M): 0.86 % con
- MTT value, mean of replicates (unheaded line) (H322; deguelin 10^−12M): 0.166
- MTT value, replicate (unheaded line) (H322; deguelin 10^−12M): 0.168 and 0.16 and 0.17
- Av. % con (H226Br; deguelin 10^−6M): 0.82 % con
- MTT value, mean of replicates (unheaded line) (H226Br; deguelin 10^−6M): 0.266
- MTT value, replicate (unheaded line) (H226Br; deguelin 10^−6M): 0.264 (2×) and 0.271
- Av. % con (H226Br; deguelin 10^−8M): 0.85 % con
- MTT value, mean of replicates (unheaded line) (H226Br; deguelin 10^−8M): 0.276
- MTT value, replicate (unheaded line) (H226Br; deguelin 10^−8M): 0.296 and 0.273 and 0.259
- Av. % con (H226Br; deguelin 10^−10M): 1.02 % con
- MTT value, mean of replicates (unheaded line) (H226Br; deguelin 10^−10M): 0.330
- MTT value, replicate (unheaded line) (H226Br; deguelin 10^−10M): 0.321 and 0.329 and 0.34
- Av. % con (H226Br; deguelin 10^−12M): 0.96 % con
- MTT value, mean of replicates (unheaded line) (H226Br; deguelin 10^−12M): 0.310
- MTT value, replicate (unheaded line) (H226Br; deguelin 10^−12M): 0.3 and 0.318 and 0.313
- Avg. % con (Cal1; deguelin 10^−6M): 0.54 % con
- MTT value, mean of replicates (unheaded line) (Cal1; deguelin 10^−6M): 0.132
- MTT value, replicate (unheaded line) (Cal1; deguelin 10^−6M): 0.13 and 0.128 and 0.138
- Avg. % con (Cal1; deguelin 10^−8M): 0.88 % con
- MTT value, mean of replicates (unheaded line) (Cal1; deguelin 10^−8M): 0.214
- MTT value, replicate (unheaded line) (Cal1; deguelin 10^−8M): 0.204 and 0.221 and 0.216
- Avg. % con (Cal1; deguelin 10^−10M): 1.16 % con
- MTT value, mean of replicates (unheaded line) (Cal1; deguelin 10^−10M): 0.281
- MTT value, replicate (unheaded line) (Cal1; deguelin 10^−10M): 0.29 and 0.294 and 0.26
- Avg. % con (Cal1; deguelin 10^−12M): 1.30 % con
- MTT value, mean of replicates (unheaded line) (Cal1; deguelin 10^−12M): 0.317
- MTT value, replicate (unheaded line) (Cal1; deguelin 10^−12M): 0.305 and 0.328 and 0.319
- IC50 [1]: < 1 nM
- induction of apoptosis, Ad5CMV-Myr.Akt.HA-infected 1799 cells (1799 cells; 10^−7 M deguelin, 2 days): less than 10%
- induction of apoptosis, uninfected or empty virus-infected 1799 cells (1799 cells; 10^−7 M deguelin, 2 days): About 40%
- apoptosis in 1799 cells (TUNEL, flow cytometry) (1799 cells; 10^−7 M deguelin): more than 90%
- apoptosis in 1799 cells (TUNEL, flow cytometry) (1799 cells; 10^−8 M deguelin): 68.5%
- DNA fragmentation in 1799 cells (1799 cells; three days of treatment, dose-dependent): induced the generation of nucleosomal-sized ladders of DNA fragments
- TUNEL and DNA fragmentation in NHBE cells (NHBE cells): neither TUNEL-positive cell population nor DNA fragmentation
- IC50 (NSCLC cells): 100 to 1000 nM
- Bcl-2 expression [2]: not found to be regulated
- bax expression [2]: Increased
